Test results taken from patent US11076595B2, “1-(n,n-disubstituted carbamoyl) 4-(substituted sulfonyl)triazolin-5-one derivative, 4-(n,n-disubstituted carbamoyl) 1-(substituted sulfonyl)triazolin-5-one derivative, and herbicide containing said derivative as active ingredient” (HOKKO CHEMICAL INDUSTRY CO., LTD., priority 2017, dated 2021).

How the values were obtained:
Format in all cases: in vivo
crabgrass [1] = assay: Test Example 3: herbicidal effect test by soil treatment in upland field; settings: upland field soil treatment 1 day after sowing; 120 g/10a; evaluated 14 days after treatment
Procedure: (§1) This test was performed with two replications per one formulation concentration plot, and 14 days after the formulation treatments, the weed suppression rate (%) was determined according to the following equation (Math. 1). Weed suppression rate (%)=(1−an average dry weight (g) of plants in treated plots/an average dry weight (g) of plants in untreated plots)×100 [Math. 1]
(§2) A pot having a size of 36 cm^2 was filled with field soil (alluvial soil) and after uniformly mixing the soil of the surface layer of 1 cm with 20 grains of each weed seed of crabgrass, Echinochloa crus-galli, Chenopodium album and Amaranthus viridis, the surface layer was pressed lightly. One day after the sowing, an emulsifiable concentrate prepared according to Formulation Example 5 by using the compound shown in Table 7 below was diluted with water, and the water-diluted formulation was sprayed on the soil surface at a ratio of 100 liter per 10 are. The application rate of the active ingredient, by conversion, corresponded to 120 g per 10 are. Fourteen days after the formulation treatment, the herbicidal effect was evaluated by the same criteria as in Test Example 1.

Chenopodium album [2] = assay: as above; settings: upland field soil treatment 1 day after sowing; 120 g/10a; evaluated 14 days after treatment
Procedure: as §1, §2

Echinochloa crus-galli [3] = assay: as above; settings: upland field soil treatment 1 day after sowing; 120 g/10a; evaluated 14 days after treatment
Procedure: as §1, §2

Amaranthus viridis [4] = assay: as above; settings: upland field soil treatment 1 day after sowing; 120 g/10a; evaluated 14 days after treatment
Procedure: as §1, §2

crabgrass [5] = assay: Test Example 4: herbicidal effect test by foliage treatment in upland field; settings: upland field foliage treatment 7 days after sowing; 120 g/10a; evaluated 14 days after treatment
How it was run: (§3)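 Suppression rate (%) derives from mean plant dry weight in treated versus untreated plots, measured 14 days after spraying, with two replications per plot. The emulsifiable concentrate was applied 7 days after sowing at 120 g active ingredient per 10 are.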

Chenopodium album [6] = assay: as above; settings: upland field foliage treatment 7 days after sowing; 120 g/10a; evaluated 14 days after treatment
How it was run: as §3

Echinochloa crus-galli [7] = assay: as above; settings: upland field foliage treatment 7 days after sowing; 120 g/10a; evaluated 14 days after treatment
How it was run: as §3

Amaranthus viridis [8] = assay: as above; settings: upland field foliage treatment 7 days after sowing; 120 g/10a; evaluated 14 days after treatment
How it was run: as §3

Scirpus juncoides [9] = assay: Test Example 1: herbicidal effect test by soil treatment in paddy field; settings: 120 g/10a, paddy soil treatment just after sowing, 14 days after treatment
How it was run: (§4)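 Seeds (30 per species) are sown 0–1 cm deep in puddled, fertilized paddy soil, then flooded to about 3 cm. Water-diluted emulsifiable concentrate is dripped in at once, giving 120 g active ingredient per 10 are. Plants grow 14 days in a glass greenhouse before dry weights are compared with untreated.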

Monochoria vaginalis [10] = assay: as above; settings: 120 g/10a, paddy soil treatment just after sowing, 14 days after treatment
How it was run: as §4

Echinochloa crus-galli [11] = assay: as above; settings: 120 g/10a, paddy soil treatment just after sowing, 14 days after treatment
How it was run: as §4

Lindernia pyxidaria [12] = assay: as above; settings: 120 g/10a, paddy soil treatment just after sowing, 14 days after treatment
How it was run: as §4

Scirpus juncoides [13] = assay: Test Example 2: herbicidal effect test by treatment during growing period in paddy field; settings: treatment 7 days after sowing, 120 g/10a, evaluated 14 days after treatment
How it was run: (§5)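 Paddy soil in Wagner pots, flooded to ~3 cm; 30 seeds per species sown 0–1 cm deep, greenhouse-grown. Emulsifiable concentrate diluted in water and dripped into flood water 7 days after sowing at 120 g active ingredient per 10 are. Dry-weight suppression vs untreated assessed 14 days post-treatment, two replicates.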

Monochoria vaginalis [14] = assay: as above; settings: treatment 7 days after sowing, 120 g/10a, evaluated 14 days after treatment
How it was run: as §5

Echinochloa crus-galli [15] = assay: as above; settings: treatment 7 days after sowing, 120 g/10a, evaluated 14 days after treatment
How it was run: as §5

Lindernia pyxidaria [16] = assay: as above; settings: treatment 7 days after sowing, 120 g/10a, evaluated 14 days after treatment
How it was run: as §5

Row | Compound | herbicidal effect (weed suppression rate), Crabgrass (crabgrass [1]) [%] | herbicidal effect (weed suppression rate), Chenopodium album (Chenopodium album [2]) [%] | herbicidal effect (weed suppression rate), Echinochloa crus-galli (Echinochloa crus-galli [3]) [%] | herbicidal effect (weed suppression rate), Amaranthus viridis (Amaranthus viridis [4]) [%] | herbicidal effect (weed suppression rate), Crabgrass (crabgrass [5]) [%] | herbicidal effect (weed suppression rate), Chenopodium album (Chenopodium album [6]) [%] | herbicidal effect (weed suppression rate), Echinochloa crus-galli (Echinochloa crus-galli [7]) [%] | herbicidal effect (weed suppression rate), Amaranthus viridis (Amaranthus viridis [8]) [%] | weed suppression rate, Scirpus juncoides (Scirpus juncoides [9]) [%] | weed suppression rate, Monochoria vaginalis (Monochoria vaginalis [10]) [%] | weed suppression rate, Echinochloa crus-galli (Echinochloa crus-galli [11]) [%] | weed suppression rate, Lindemia pyxidaria (Lindernia pyxidaria [12]) [%] | weed suppression rate, Scirpus juncoides (Scirpus juncoides [13]) [%] | weed suppression rate, Monochoria vaginalis (Monochoria vaginalis [14]) [%] | weed suppression rate, Echinochloa crus-galli (Echinochloa crus-galli [15]) [%] | weed suppression rate, Lindemia pyxidaria (Lindernia pyxidaria [16]) [%]
1 | CC(C)N(C(=O)n1ncn(S(=O)(=O)C2CC2)c1=O)c1cccc(F)c1F [Compound 1-198] | 100 | 100 | 100 | 100 | 100 | 80 | 100 | 80 | 100 | 100 | 100 | 100 | 80 | 100 | 100 | 100
2 | CC(C)N(C(=O)n1ncn(S(=O)(=O)C2CC2)c1=O)c1c(F)cccc1F [Compound 1-200] | 100 | 40 | 100 | 40 | 100 | 70 | 100 | 80 | 100 | 80 | 100 | 100 | 100 | 90 | 100 | 80
3 | CC(C)N(C(=O)n1ncn(S(=O)(=O)C2CC2)c1=O)c1ccc(F)c(F)c1F [Compound 1-203] | 80 | 60 | 80 | 90 | 100 | 80 | 100 | 100 | 100 | 90 | 100 | 100 | 100 | 100 | 100 | 80
4 | CC(C)N(C(=O)n1ncn(S(=O)(=O)C2CC2)c1=O)c1ccc(F)cc1Cl [Compound 1-214] | 90 | 80 | 80 | 90 | 90 | 80 | 80 | 90 | 90 | 80 | 90 | 80 | 90 | 80 | 90 | 80
5 | CC(C)N(C(=O)n1ncn(S(=O)(=O)C2CC2)c1=O)c1ccc(Cl)cc1F [Compound 1-215] | 80 | 80 | 80 | 80 | 90 | 60 | 90 | 60 | 100 | 100 | 100 | 100 | 100 | 100 | 100 | 100
6 | CC(C)N(C(=O)n1ncn(S(=O)(=O)C(C)C)c1=O)c1cccnc1F [Compound 1-241] | 90 | 90 | 90 | 90 | 90 | 70 | 90 | 50 | 80 | 90 | 100 | 90 | 80 | 80 | 100 | 90
7 | CC(C)N(C(=O)n1ncn(S(=O)(=O)C2CC2)c1=O)c1ccc(Cl)cn1 [Compound 1-244] | 90 | 40 | 80 | 50 | 90 | 40 | 90 | 0 | 90 | 90 | 100 | 100 | 90 | 90 | 100 | 100
8 | CC(C)N(C(=O)n1ncn(S(=O)(=O)C2CC2)c1=O)c1ccc(Cl)nc1Cl [Compound 1-249] | 90 | 80 | 80 | 90 | 90 | 80 | 80 | 90 | 90 | 90 | 100 | 90 | 90 | 90 | 100 | 90
9 | Cc1nn(C(=O)N(c2ccc(F)cc2F)C(C)C)c(=O)n1S(=O)(=O)C1CC1 [Compound 1-257] | 90 | 80 | 80 | 90 | 90 | 80 | 80 | 90 | 90 | 80 | 90 | 80 | 90 | 80 | 90 | 80
